What was measured:
PPARδ [1] = target: T1, PPARδ (Mus musculus, UniProt P35396); test: Partial protease (trypsin) digestion assay, PPARδ; type: binding; settings: 2, 20 and 100 μM AJA
T1 construct: expressed in transfected cells; host or cells: HEK293 / HEK293T
T1 sequence (P35396 1-440): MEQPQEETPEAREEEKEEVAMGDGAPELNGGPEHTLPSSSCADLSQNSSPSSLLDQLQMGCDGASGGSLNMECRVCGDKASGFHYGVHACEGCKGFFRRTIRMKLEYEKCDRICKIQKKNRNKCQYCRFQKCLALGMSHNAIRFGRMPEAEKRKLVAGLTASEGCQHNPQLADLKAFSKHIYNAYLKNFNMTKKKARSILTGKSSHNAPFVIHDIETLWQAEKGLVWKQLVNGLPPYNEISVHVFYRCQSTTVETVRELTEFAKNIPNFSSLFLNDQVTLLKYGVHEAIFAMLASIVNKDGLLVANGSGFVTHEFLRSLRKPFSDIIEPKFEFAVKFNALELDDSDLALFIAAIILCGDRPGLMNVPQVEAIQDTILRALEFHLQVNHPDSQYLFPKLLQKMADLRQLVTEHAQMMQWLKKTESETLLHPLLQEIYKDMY
Experimental: Partial protease digestion was carried out as described by Leng et. al. (J Steroid Biochem Mol Biol 46:643-61, 1993). PPAR proteins were made by in vitro transcription/translation reactions in reticulocyte lysate according to the manufacture's instructions (Promega). AJA, GW347845, or vehicle alone was incubated with the 35S-labeled PPARs at room temperature for one hour before trypsin digestion. Reactions were stopped by boiling in SDS-containing sample buffer, and lysates were subjected to SDS-PAGE and autoradiography.
The PPAR proteins were synthesized and labeled with ^35S-methionine in reticulocyte lysate and incubated with AJA, GW347845, or vehicle alone at room temperature for one hour before trypsin digestion. The reactions were terminated by boiling in SDS-containing protein sample buffer. The proteolytic patterns of PPAR proteins were then analyzed by SDS-PAGE and autoradiography, and compared with vehicle-treated control samples.
The AJA concentrations required to protect PPARγ from trypsin digestion were further measured.

PPARδ [2] = target: T1, PPARδ; test: PPRE-TK-LUC reporter transient transfection, PPARδ; type: cell-based; settings: 20 μM AJA (FIG. 3C)
Experimental: (§1) For PPARγ activation assay, HEK293 cells were plated in 12-well cell culture plates and maintained in Dulbecco's modified Eagle's medium (DMEM) supplemented with 10% fetal bovine serum (FBS) at 37° C. under 5% CO2. Cells were changed to phenol red-free DMEM supplemented with 10% charcoal-stripped fetal bovine serum 3 hours before transfection by a standard calcium-phosphate precipitation method. Twelve hours after transfection, the cells were washed with phosphate-buffered saline (PBS) and fed again with fresh medium containing the indicated concentrations of compounds. After 36 hours, cells were harvested for β-galactosidase and luciferase activities as described previously (Li et al., Proc Natl Acad Sci USA 94:8479-84, 1997). The average normalized luciferase activity was determined via triplicate experiments. For IL-8 promoter assay, HeLa cells were maintained and transfected in the same way as described above. After transfection, cells were recovered for 4 hours before treatment with AJA, GW347845, or solvent. After 3-4 hours, cells were treated with or without 25 nM of phorbol myristate acetate (PMA) for 24 hours.
In an effort to confirm that AJA activates PPARγ selectively, the ability of AJA to activate PPARα and PPARδ was analyzed in a similar transient transfection assay.

human IL-8 promoter = test: IL-8 promoter luciferase assay, HeLa cells with wild type PPARγ; type: cell-based
Experimental: as §1
The IL-8 luciferase reporter controlled by the human IL-8 promoter (-97/-69) was cotransfected with mPPARγ or mPPARγ ΔAF2 mutant into HeLa cells. After transfection, cells were treated with AJA, GW347845 or solvent after PMA treatment for 24 hours. This was performed by determining the effect of AJA on IL-8 promoter activity and the role of PPARγ in this process. IL-8 is a biomarker for inflammation, and reduction of IL-8 levels correlates with a decrease in inflammation. The involvement of PPARγ in regulating IL-8 promoter activity was determined by comparing the IL-8 promoter activity in the presence of wild type PPARγ or its ΔAF2 mutant. In the experiment illustrated in FIG. 6A, PMA stimulated IL-8 promoter activity 3 fold, which was set as 100% promoter activity.

COX-2 = target: T2, COX-2 (Homo sapiens, UniProt P35354); settings: Zurier et al. 1998; cited from earlier work
T2 sequence (P35354 18-604): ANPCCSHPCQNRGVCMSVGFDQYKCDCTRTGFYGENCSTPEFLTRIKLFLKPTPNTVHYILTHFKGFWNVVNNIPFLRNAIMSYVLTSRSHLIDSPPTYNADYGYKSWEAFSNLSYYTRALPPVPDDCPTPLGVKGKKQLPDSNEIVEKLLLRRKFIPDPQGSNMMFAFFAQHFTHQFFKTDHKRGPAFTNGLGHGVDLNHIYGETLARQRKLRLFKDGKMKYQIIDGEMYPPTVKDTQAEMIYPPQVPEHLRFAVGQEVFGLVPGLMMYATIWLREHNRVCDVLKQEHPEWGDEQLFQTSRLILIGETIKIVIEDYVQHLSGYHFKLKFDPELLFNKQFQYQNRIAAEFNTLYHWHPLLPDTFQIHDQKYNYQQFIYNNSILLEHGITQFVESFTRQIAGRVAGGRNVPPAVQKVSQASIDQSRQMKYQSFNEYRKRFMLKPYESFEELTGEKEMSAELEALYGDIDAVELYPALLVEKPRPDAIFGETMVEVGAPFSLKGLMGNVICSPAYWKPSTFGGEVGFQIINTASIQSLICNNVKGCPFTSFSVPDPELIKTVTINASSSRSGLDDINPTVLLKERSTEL

[3] = mouse tail clip assay, cited from earlier work
[4] = adjuvant-induced poly-arthritis, rats; cited from earlier work
[5] = cited from earlier work
[6] = animal models; cited from earlier work

Question: With `CCCCCCC(C)(C)c1cc(O)c2c(c1)OC(C)(C)[C@@H]1CC=C(C(=O)O)C[C@@H]21` [AJA, dimethylheptyl-THC-11-oic acid] as the compound, how does the “proteinase sensitivity of PPARδ” value (PPARδ [1]) read?
Answer: The value was “did not affect the proteinase sensitivity”.

Question: What about the “activation of PPARδ” value (PPARδ [2]) of the same compound?
Answer: Its value is “neither did AJA activate PPARδ”.

Question: And the “reduction of PMA-stimulated IL-8 promoter activity” value (human IL-8 promoter; 20 μM, HeLa cells)?
Answer: The value was “about 40%”.

Question: And the “significance of the reduction of IL-8 promoter activity” value (human IL-8 promoter; 10 and 20 μM AJA)?
Answer: The value was “statistically significant”.

Question: And the “concentration range suppressing COX-2 activity” value (COX-2)?
Answer: The value was 1 to 10 µM.

Question: What about the analgesic function ([3]; Dajani et al. 1999) of the same compound?
Answer: The analgesic function was “potent analgesic function comparable with morphine”.

Question: And the “duration of analgesic effect” value ([3]; compared with morphine)?
Answer: Its value is “lasted even longer than morphin”.

Question: What about the chronic joint inflammation [4] of the same compound?
Answer: Its chronic joint inflammation is “suppress”.

Question: And the drug dependence ([5]; in vivo)?
Answer: Its drug dependence is “did not exhibit drug dependence”.

Question: And the mutagenesis ([5]; in vivo)?
Answer: The mutagenesis was “did not exhibit drug dependence or cause mutagenesis”.

Question: And the ulcerogenicity ([5]; therapeutically relevant doses)?
Answer: Its ulcerogenicity is “totally non-ulcerogenic”.

Question: And the psychoactivity [6]?
Answer: The psychoactivity was “does not show the typical psychoactive effect”.
